Legend:
[1] = system: isolated hearts; assay: Isolated hearts, ischemia and reperfusion
[2] = Solubility and passage of membranes (statement); format: physicochemical
[3] = Spectral scans of peroxynitrite-oxidized Mn porphyrins and re-reduction of Mn(IV); format: biochemical
Method: The peaks at 428 nm (left arrows) are due to Mn(IV)=O (15) whereas the 464 nm peaks (right arrows) are due to Mn(III). […] INSET: The indicated amounts of peroxynitrite were added to solutions of MnTBAP (10 μM) in phosphate buffer and the decrease in 464 nm absorbance was monitored at a data collection rate of 10 points/s. The maximal change in 464 nm absorbance associated with oxidation of Mn(III) to Mn(IV), which occurred in >1 s, was plotted versus peroxynitrite; the concentration at which no further absorbance change occurred was used to establish the reaction stoichiometry.

[4] = 100 μM DCDHF, pH 7.4, 37° C.
Method: A 14.5 mM stock solution of 2,7-dichlorodihydrofluorescein was prepared as described (24). Reaction solutions were prepared in rapidly stirred glass cuvettes and contained 100 μM of DCDHF and 2 μM of the indicated MP in 1.4 ml of 0.1 M potassium phosphate, pH 7.4 at 37° C. Peroxynitrite was added sequentially to rapidly stirred cuvettes; three seperate additions of 2 μM peroxynitrite were made followed by three seperate additions of 4 μM each (see Inset). DCDHF oxidation to dichlorofluorescein (DCF) was monitored at 500 nm (59,500 M^−1cm^−1) (24). Oxidative efficiency was defined as the moles of DCF formed per mole of peroxynitrite added and was determined for each peroxynitrite addition. The values shown represent the average of all six additions.
Dichlorodihydrofluorescein (DCDHF) undergoes a two-electron oxidation to yield the highly absorbing (and fluorescent) product dichlorofluorescein (DCF). DCDHF has been shown previously to be oxidized at an efficiency as high as 38% of added peroxynitrite (24) and was used here as an indicator to detect any changes in the total oxidative yield of peroxynitrite caused by metalloporphyrins.

[5] = reference (8); cited from earlier work

SMILES: O=C(O)c1ccc(-c2c3nc(c(-c4ccc(C(=O)O)cc4)c4ccc([n-]4)c(-c4ccc(C(=O)O)cc4)c4nc(c(-c5ccc(C(=O)O)cc5)c5ccc2[n-]5)C=C4)C=C3)cc1.[Fe+2] [FeTCPP, Iron (III) meso 5,10,15,20-tetrakis-(4-carboxy-phenyl) porphyrin]
- protection of isolated hearts [1]: protects isolated hearts from the injurious effects of ischemia and reperfusion
- passage of cell membranes and the blood-brain-barrier [2]: readily cross cell membranes and the blood-brain-barrier
- water solubility [2]: very water soluble

SMILES: C[n+]1ccc(-c2c3nc(c(-c4cc[n+](C)cc4)c4ccc([n-]4)c(-c4cc[n+](C)cc4)c4nc(c(-c5cc[n+](C)cc5)c5ccc2[n-]5)C=C4)C=C3)cc1.[Cl-].[Cl-].[Cl-].[Cl-].[Cl-].[Mn+3] [MnTMPyP, Manganese (III) meso-tetra-(N-methyl-4-pyridyl)-porphine chloride]
- time to complete re-reduction to Mn(III) ([3]; 10 μM MP, peroxynitrite 20 μM alone): 30 s
- time to complete re-reduction to Mn(III) ([3]; 50 μM H2O2 added before peroxynitrite): 17 s
- time to complete re-reduction to Mn(III) ([3]; 50 μM nitrate added before peroxynitrite): 74 s
- time to complete re-reduction to Mn(III) ([3]; 50 μM nitrite added before peroxynitrite): 30 s
- time to complete re-reduction to Mn(III) ([3]; H2O2 and nitrate or H2O2 and nitrite added together): 17 s
- increase of total oxidant yield from peroxynitrite [4]: 2.2 fold
- oxidant yield, of added peroxynitrite [4]: 83%
- Rate constant for oxidation by peroxynitrite reported previously [5]: 1.8e+06 M⁻¹ s⁻¹

Reference: patent US6372727B1, “Metalloporphyrin treatment of neurologic disease” (UAB Research Foundation, priority 1999, dated 2002)
